Series [1] concerns the target T1, Tyrosyl-DNA phosphodiesterase 1 (Homo sapiens, UniProt Q9NUW8). Briefly: Inhibition of Tdp1 (unknown origin).
Series [2] concerns the target T1, Tyrosyl-DNA phosphodiesterase 1.
Series [3] has the same target. Briefly: Binding affinity to recombinant human Tdp1 (149 to 608 residues) expressed in Escherichia coli BL21 (DE3) by tryptophan fluorescence quenching assay.
A short description of series [4]: Stability of the compound assessed as imine hydrolysis at pH 1 HCl solution incubated for 24 hrs under shaking condition. Particulars: buffer, pH 1, 24 h. It is filed as physicochemical.
The nature of series [5]: Cytotoxicity against human MCF7 cells after 3 days by [3H]-thymidine incorporation assay. The class given is cell-based.
Series [6] can be described thus: Cytotoxicity against mouse LLTC cells after 3 days by [3H]-thymidine incorporation assay. The class given is cell-based. (In general: Uptake of a labelled nucleoside into DNA is a usual measure of proliferation.)
The nature of series [7]: Acute toxicity in ig dosed specific pathogen free CD-1 mouse. The class given is organism-based. Particulars: in vivo, po.
A short description of series [8]: Toxicity in C57BL/6 mouse implanted with C57BL mouse LLC cells assessed as state and behavioral changes at 100 mg/kg, ig administered as single dose. It is filed as organism-based. As to conditions: in vivo, po.
Series [9] in a line: Toxicity in C57BL/6 mouse implanted with C57BL mouse LLC cells assessed as state and behavioral changes at 100 mg/kg, ig administered as single dose in presence of topotecan. It is filed as organism-based. Particulars: in vivo, po.
Series [10] is described as follows: Toxicity in C57BL/6 mouse implanted with C57BL mouse LLC cells assessed as death at 100 mg/kg, ig in presence of topotecan. It is filed as organism-based. As to conditions: in vivo, po.
Series [11] is described as follows: Toxicity in C57BL/6 mouse implanted with C57BL mouse LLC cells assessed as death at 100 mg/kg, ig. It is filed as organism-based. As to conditions: in vivo, po.
Series [12] in a line: Toxicity in C57BL/6 mouse implanted with C57BL mouse LLC cells assessed as change in body weight at 100 mg/kg, ig administered as single dose (reference value: 90%). It is filed as organism-based. Particulars: in vivo, po.
Series [13] is described as follows: Toxicity in C57BL/6 mouse implanted with C57BL mouse LLC cells assessed as change in body weight at 100 mg/kg, ig administered as single dose in presence of topotecan (reference value: 90%). The class given is organism-based. Particulars: in vivo, po.
The subject of series [14] is Lewis lung carcinoma cell line. Briefly: Cytotoxicity against C57BL mouse LLC cells implanted in C57BL/6 mouse assessed as tumor weight at 100 mg/kg, ig administered as single dose measured 17 days post transplantation (reference value: 3.3 +/- 0.28 g). The class given is organism-based. As to conditions: in vivo, po, 408 h.
Series [15] concerns Lewis lung carcinoma cell line. Briefly: Potentiation of topotecan-induced anticancer activity against C57BL mouse LLC cells implanted in C57BL/6 mouse assessed as tumor weight at 100 mg/kg, ig administered as single dose measured 17 days post transplantation (reference value: 2.9 +/- 0.28 g). The class given is functional.
The nature of series [16]: Toxicity in C57BL/6 mouse implanted with C57BL mouse LLC cells assessed as liver index at 100 mg/kg, ig administered as single dose measured 17 days post-transplantation in presence of topotecan (reference value: 5.8 +/- 0.38%). The class given is organism-based. Particulars: in vivo, po, 408 h.
Series [17] in a line: Toxicity in C57BL/6 mouse implanted with C57BL mouse LLC cells assessed as liver index at 100 mg/kg, ig administered as single dose measured 17 days post-transplantation (reference value: 5.8 +/- 0.38%). As to conditions: in vivo, po, 408 h. It is filed as organism-based.
Series [18] in a line: Toxicity in C57BL/6 mouse implanted with C57BL mouse LLC cells assessed as spleen weight at 100 mg/kg, ig administered as single dose measured 17 days post-transplantation in presence of topotecan (reference value: 252 +/- 12 mg). It is filed as organism-based. Particulars: in vivo, po, 408 h.
A short description of series [19]: Toxicity in C57BL/6 mouse implanted with C57BL mouse LLC cells assessed as spleen weight at 100 mg/kg, ig administered as single dose measured 17 days post-transplantation (reference value: 252 +/- 12 mg). Particulars: in vivo, po, 408 h. It is filed as organism-based.
In series [20] the test system is Lewis lung carcinoma cell line. Kind of series: Cytotoxicity against C57BL mouse LLC cells implanted in C57BL/6 mouse assessed as effect on number of metastatic nodules in lung at 100 mg/kg, ig administered as single dose measured 17 days post transplantation by microscopic analysis. It is filed as organism-based. Particulars: in vivo, po, 408 h.
The target in series [21] is T1, Tyrosyl-DNA phosphodiesterase 1. The source holds these as a separate data set.
The nature of series [22]: Oral bioavailability in rabbit at 20 mg/kg by HPLC analysis. As to conditions: in vivo. The class given is ADME, organism-based, Oryctolagus cuniculus.
A short description of series [23]: Toxicity in C57BL/6 mouse implanted with C57BL mouse LLC cells assessed as state and behavioral changes at 1.5 mg/kg, ip administered on day 4, 5, 7 and 9 post-transplantation. The class given is organism-based. Particulars: in vivo.
The nature of series [24]: Toxicity in C57BL/6 mouse implanted with C57BL mouse LLC cells assessed as death at 1.5 mg/kg, ip administered on day 4, 5, 7 and 9 post-transplantation. The class given is organism-based. Particulars: in vivo.
A short description of series [25]: Toxicity in C57BL/6 mouse implanted with C57BL mouse LLC cells assessed as change in body weight at 1.5 mg/kg, ip administered on day 4, 5, 7 and 9 post-transplantation (reference value: 90%). As to conditions: in vivo. It is filed as organism-based.
Series [26] is described as follows: Toxicity in C57BL/6 mouse implanted with C57BL mouse LLC cells assessed as liver index at 1.5 mg/kg, ip administered on day 4, 5, 7 and 9 post-transplantation measured 17 days post-transplantation (reference value: 5.8 +/- 0.38%). The class given is organism-based. As to conditions: in vivo, 408 h.
Series [27] in a line: Toxicity in C57BL/6 mouse implanted with C57BL mouse LLC cells assessed as spleen weight at 1.5 mg/kg, ip administered on day 4, 5, 7 and 9 post-transplantation measured 17 days post-transplantation (reference value: 252 +/- 12 mg). It is filed as organism-based. As to conditions: in vivo, 408 h.

For orientation: IC50 means the concentration that inhibits the measured activity by half. A lower IC50 goes with inhibition by little substance. As a reminder, the Kd is the constant that tells how readily two partners part at equilibrium. The term CC50 denotes the concentration that lowers cell viability or growth by half. For orientation: LD50 means the dose at which mortality reaches 50%. A lower LD50 goes with a more toxic substance. For orientation: bioavailability means the share of a dose that reaches the circulation, judged against a reference dose that is usually intravenous. A low value points to poor availability.

T1 sequence (Q9NUW8 whole entry): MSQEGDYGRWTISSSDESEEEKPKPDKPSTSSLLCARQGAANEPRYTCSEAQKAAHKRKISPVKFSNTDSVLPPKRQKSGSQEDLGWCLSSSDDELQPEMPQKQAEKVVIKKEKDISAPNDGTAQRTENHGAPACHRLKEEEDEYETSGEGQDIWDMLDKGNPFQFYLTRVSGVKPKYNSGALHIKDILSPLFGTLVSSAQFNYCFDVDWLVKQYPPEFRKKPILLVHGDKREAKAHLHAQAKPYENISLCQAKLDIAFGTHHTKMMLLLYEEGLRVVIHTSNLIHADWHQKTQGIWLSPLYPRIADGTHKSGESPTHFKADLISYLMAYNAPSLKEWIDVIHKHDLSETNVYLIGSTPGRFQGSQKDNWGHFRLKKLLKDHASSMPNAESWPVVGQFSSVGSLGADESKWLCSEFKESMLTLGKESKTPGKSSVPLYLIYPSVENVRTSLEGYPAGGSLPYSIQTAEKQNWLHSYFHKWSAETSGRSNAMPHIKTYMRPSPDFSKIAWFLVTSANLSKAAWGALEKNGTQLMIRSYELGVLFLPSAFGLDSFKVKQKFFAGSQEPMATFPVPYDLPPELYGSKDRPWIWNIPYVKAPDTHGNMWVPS

The compound `Cc1ccc(C)n1-c1ccc(Cl)c(C(=O)O)c1` registered an IC50 in series [1] of 110 nM.

In series [2], `COc1cc(/C=N/Nc2nc(-c3c(O)c(C)c(O)c4c3OC3=CC(O)=C(C(C)=O)C(=O)[C@@]34C)cs2)ccc1O` returned a concentration for half-maximal inhibition (IC50) of 192 nM. Further, in series [3], the dissociation constant Kd came to 44600 nM. Further, the Stability entry in [4] is listed as “Stable”.

For the compound `CC(=O)C1=C(O)C=C2Oc3c(-c4csc(N/N=C/c5ccc(Br)cc5)n4)c(O)c(C)c(O)c3[C@@]2(C)C1=O`, the dissociation constant (Kd) in series [3] turned out to be 7020 nM. Moreover, the CC50 at 72 h in series [5] is 1690 nM; in series [6] it was 1670 nM. Besides, the LD50 in series [7] was > 5000 mg/kg. In addition, the Activity result in series [8] is “Non-Toxic”; in series [9] it was “Non-Toxic”; in [10] it was “Non-Toxic”; in series [11], “Non-Toxic”; in series [12], 88.2%; in [13], 89.7%. The Activity in series [14] was found to be 3.3 g; in series [15], 1.4 g; in series [16] it was 6.5%; in [17] it was 6%; in series [18] it was 326 mg; in series [19], 281 mg. Further, in [20], the Activity result is recorded as “Non-Toxic”. The Stability entry in series [4] is recorded as “Stable”.

Compound `CC(=O)C1=C(O)C=C2Oc3c(-c4csc(N/N=C/c5ccc(Cl)cc5)n4)c(O)c(C)c(O)c3[C@@]2(C)C1=O` came in with an IC50 in series [2] of 68 nM. The dissociation constant (Kd) in series [3] is 9460 nM. The Stability result in [4] is given as “Stable”.

Turning to `CC(=O)C1=C(O)C=C2Oc3c(-c4csc(N/N=C/c5ccc([N+](=O)[O-])cc5)n4)c(O)c(C)c(O)c3[C@@]2(C)C1=O`, the IC50 in series [2] is 35 nM. The Kd in series [3] was found to be 10700 nM. Moreover, in series [4], the Stability entry is recorded as “Stable”.

Turning to `CC(=O)C1=C(O)C=C2Oc3c(-c4csc(-c5cccnc5)n4)c(O)c(C)c(O)c3[C@@]2(C)C1=O`, the IC50 in series [2] stood at 1210 nM.

For `COc1ccc(/C=N/Nc2nc(-c3c(O)c(C)c(O)c4c3OC3=CC(O)=C(C(C)=O)C(=O)[C@@]34C)cs2)cc1`, inhibition in series [2] was half-maximal at 158 nM (IC50). In series [3], the Kd was determined as 8650 nM. The Stability result in series [4] is listed as “Stable”.

As to `CC(C)=CCCC(C)CCNC1C2CC3CC(C2)CC1C3` (stereo not given), in [2], the 50% inhibitory concentration (IC50) was found to be 3500 nM.

Take `CC(=O)C1=C(O)C=C2Oc3c(-c4csc(-c5ccccc5)n4)c(O)c(C)c(O)c3[C@@]2(C)C1=O`: inhibition in series [2] was half-maximal at 1120 nM (IC50).

Regarding `CC(=O)C1=C(O)C=C2Oc3c(-c4csc(Nc5ccccc5)n4)c(O)c(C)c(O)c3[C@@]2(C)C1=O`, 610 nM corresponded to half-maximal inhibition in series [2] (IC50).

In the case of `COc1cc(/C=C2\SC(=S)N(c3ccc([N+](=O)[O-])cc3)C2=O)cc(Br)c1O`, the 50% inhibitory concentration (IC50) in series [21] is 1080 nM.

`CNc1nc(-c2c(O)c(C)c(O)c3c2OC2=CC(O)=C(C(C)=O)C(=O)[C@@]23C)cs1` had an IC50 in [2] of 5900 nM.

`CC(=O)c1c([O-])c(C)c([O-])c2c1OC1=CC(=O)C(C(C)=O)C(=O)[C@@]12C.[Na+].[Na+]` (stereo not given in full) gave a bioavailability in series [22] of 78%.

The compound `CC(=O)C1=C(O)C=C2Oc3c(-c4csc(N/N=C/c5ccc(F)cc5)n4)c(O)c(C)c(O)c3[C@@]2(C)C1=O` gave an IC50 in [2] of 150 nM. The Kd in series [3] amounted to 35200 nM. For the same compound, the Stability entry in series [4] is “Stable”.

The compound `CC(=O)C1=C(O)C=C2Oc3c(-c4csc(N/N=C/c5ccc(O)cc5)n4)c(O)c(C)c(O)c3[C@@]2(C)C1=O` showed an IC50 in [2] of 457 nM. The Kd in series [3] was 31100 nM. Besides, in [4], the Stability result is “Stable”.

`CC(=O)C1=C(O)C=C2Oc3c(-c4csc(N/N=C/c5ccccc5)n4)c(O)c(C)c(O)c3[C@@]2(C)C1=O` came in with an IC50 in series [2] of 172 nM. In series [3], the Kd was 7140 nM. For the same compound, the Stability result in [4] was “Stable”.

`C=CCNc1nc(-c2c(O)c(C)c(O)c3c2OC2=CC(O)=C(C(C)=O)C(=O)[C@@]23C)cs1`: it took 1250 nM to reach half-maximal inhibition in series [2] (IC50).

On to `CC(=O)C1=C(O)C=C2Oc3c(-c4csc(C)n4)c(O)c(C)c(O)c3[C@@]2(C)C1=O`, for which the half-maximal inhibitory concentration (IC50) in series [2] was determined as 4100 nM.

For the compound `CC(=O)C1=C(O)C=C2Oc3c(C(=O)CSC#N)c(O)c(C)c(O)c3[C@@]2(C)C1=O`, the midpoint of inhibition in series [1], the IC50, lay at 1010 nM.

Turning to `CC(=O)C1=C(O)C=C2Oc3c(-c4csc(N/N=C/c5cccc([N+](=O)[O-])c5)n4)c(O)c(C)c(O)c3[C@@]2(C)C1=O`, the concentration for half-maximal inhibition (IC50) in [2] is 86 nM. In addition, the Kd in series [3] was 6200 nM. In addition, in series [4], the Stability entry is given as “Stable”.

Turning to `CC(=O)C1=C(O)C=C2Oc3c(-c4csc(N)n4)c(O)c(C)c(O)c3[C@@]2(C)C1=O`, the IC50 in [2] turned out to be 3800 nM.

Take `CC(=O)C1=C(O)C=C2Oc3c(C(C)=O)c(O)c(C)c(O)c3[C@@]2(C)C1=O` [(+)-USNIC ACID]: in [2], the IC50 was > 50000 nM.

Take `CC[C@@]1(O)C(=O)OCc2c1cc1n(c2=O)Cc2cc3c(CN(C)C)c(O)ccc3nc2-1` [TOPOTECAN]: the Activity result in series [23] was “Non-Toxic”; in series [24], “Non-Toxic”; in series [25] it was 88.1%; in series [26], 5.8%; in series [27], 260 mg.

For the origin of these results see ChEMBL document CHEMBL4325890, “Novel tyrosyl-DNA phosphodiesterase 1 inhibitors enhance the therapeutic impact of topoteсan on in vivo tumor models” (Eur J Med Chem, 2019).
